Results from ChEMBL document CHEMBL4028815, “Novel phosphonate analogs of sulforaphane: Synthesis, in vitro and in vivo anticancer activity” (Eur J Med Chem, 2017).
Activity calls are given as the source filed them. The calls are words filed in the database; no cut-off is given here.

Tests used:
[1] = test system: LoVo; assay: Potency index, ratio of benzyl isothiocyanate IC50 to compound IC50 for human LoVo cells; format: functional
[2] = Resistance index, ratio of IC50 for human HL60/MX2 cells to IC50 for human HL60 cells; format: functional
[3] = test system: LoVo; assay: Cytotoxicity against human LoVo cells after 72 hrs by sulforhodamine B assay; format: functional, cell-based
[4] = Resistance index, ratio of IC50 for human LoVo/DX cells to IC50 for human LoVo cells; format: functional
[5] = test system: LoVo; assay: Cell cycle arrest in human LoVo cells assessed as accumulation at G2/M phase at 15 uM after 24 hrs by propidium iodide staining based flow cytometric method; format: functional
[6] = Induction of apoptosis in human LoVo/DX cells assessed as increase in caspase3/7 activity at 15 uM using Ac-DEVD-ACC as substrate pretreated for 24 hrs followed by substrate addition measured for 2 hrs by fluorescence assay relative to control; format: functional
[7] = test system: Mus musculus; assay: Nephrotoxicity in BALB/c mdb mouse implanted with mouse 4T1 cells assessed as kidney weight at 100 umol/kg, ip administered five times weekly measured at 29 day post cell innoculum (reference value: 0.136 +/- 0.006 g); format: toxicity, organism-based; settings: in vivo, 696 h
[8] = test system: 4T1; assay: Anti-tumor activity against mouse 4T1 cells implanted in BALB/c mdb mouse assessed as lung metastasis at 100 umol/kg, ip administered five times weekly measured at 29 days post cell innoculum (reference value: 56 +/- 25); format: functional
[9] = test system: Mus musculus; assay: Toxicity in BALB/c mdb mouse implanted with mouse 4T1 cells assessed as serum AST level at 100 umol/kg, ip administered five times weekly measured at 29 day post cell innoculum (reference value: 136 +/- 10.3 U/L); format: organism-based; settings: in vivo, 696 h
[10] = test system: Mus musculus; assay: Toxicity in BALB/c mdb mouse implanted with mouse 4T1 cells assessed as serum creatinine level at 100 umol/kg, ip administered five times weekly measured at 29 day post cell innoculum (reference value: 9.3 +/- 1.2 umol/L); format: organism-based; settings: in vivo, 696 h

SMILES: O=P(CCCCCCN=C=S)(Oc1ccccc1)Oc1ccccc1
- Ratio IC50 [1]: 5
- Ratio IC50 [2]: 4.3
- IC50 [3]: 2900 nM
- Ratio IC50 [4]: 4
- Activity [5]: Active
- fold change (FC) [6]: 6.8
- Activity [7]: 0.143 g
- Activity [8]: 46
- Activity [9]: 153 U/L
- Activity [10]: 8.4 µmol/L
